Laboratory results as given in ChEMBL document CHEMBL1255267, “Reduced Susceptibility of Proteus mirabilis to triclosan” (2008).
≈ marks a conversion by molar mass, not a printed value.

tested on: Proteus mirabilis; experiment: Antibacterial activity against Proteus mirabilis M 29 mutant after 18 hrs by Etest method; format: functional; details: M 29, 18 h

Structure (SMILES)	MIC
Oc1cc(Cl)ccc1Oc1ccc(Cl)cc1Cl [TRICLOSAN]	10 µg/mL (≈ 34.5 µM)

tested on: Proteus mirabilis; experiment: Antibacterial activity against Proteus mirabilis M 12 mutant after 18 hrs by Etest method; format: functional; details: M 12, 18 h

Structure (SMILES)	MIC
Oc1cc(Cl)ccc1Oc1ccc(Cl)cc1Cl [TRICLOSAN]	40 µg/mL (≈ 138 µM)

tested on: Proteus mirabilis; experiment: Antibacterial activity against Proteus mirabilis M 42 mutant after 18 hrs by Etest method; format: functional; details: M 42, 18 h

Structure (SMILES)	MIC
Oc1cc(Cl)ccc1Oc1ccc(Cl)cc1Cl [TRICLOSAN]	0.8 µg/mL (≈ 2.76 µM)

tested on: Proteus mirabilis; experiment: Effect on catheter blockage in Bladder model inoculated with wild-type Proteus mirabilis B2; format: functional; details: not given

Structure (SMILES)	Time
Oc1cc(Cl)ccc1Oc1ccc(Cl)cc1Cl [TRICLOSAN]	>48 h

tested on: Proteus mirabilis; experiment: Antibacterial activity against Proteus mirabilis B2 after 18 hrs by Etest method; format: functional; details: B2, 18 h

Structure (SMILES)	MIC
Oc1cc(Cl)ccc1Oc1ccc(Cl)cc1Cl [TRICLOSAN]	0.2 µg/mL (≈ 0.691 µM)

tested on: Proteus mirabilis; experiment: Antibacterial activity against Proteus mirabilis M 19 mutant after 18 hrs by Etest method; format: functional; details: M 19, 18 h

Structure (SMILES)	MIC
Oc1cc(Cl)ccc1Oc1ccc(Cl)cc1Cl [TRICLOSAN]	40 µg/mL (≈ 138 µM)

tested on: Proteus mirabilis; experiment: Antibacterial activity against Proteus mirabilis NP43 after 18 hrs by Etest method; format: functional; details: NP43, 18 h

Structure (SMILES)	MIC
Oc1cc(Cl)ccc1Oc1ccc(Cl)cc1Cl [TRICLOSAN]	0.2 µg/mL (≈ 0.691 µM)

tested on: Proteus mirabilis; experiment: Antibacterial activity against Proteus mirabilis M 26 mutant after 18 hrs by Etest method; format: functional; details: M 26, 18 h

Structure (SMILES)	MIC
Oc1cc(Cl)ccc1Oc1ccc(Cl)cc1Cl [TRICLOSAN]	20 µg/mL (≈ 69.1 µM)

tested on: Proteus mirabilis; experiment: Antibacterial activity against Proteus mirabilis M 17 mutant after 18 hrs by Etest method; format: functional; details: M 17, 18 h

Structure (SMILES)	MIC
Oc1cc(Cl)ccc1Oc1ccc(Cl)cc1Cl [TRICLOSAN]	40 µg/mL (≈ 138 µM)

tested on: Proteus mirabilis; experiment: Effect on pH of residual urine at time of catheter blockage in Bladder model inoculated with wild-type Proteus mirabilis B2; format: functional; details: not given

Structure (SMILES)	pH
Oc1cc(Cl)ccc1Oc1ccc(Cl)cc1Cl [TRICLOSAN]	6.28

tested on: Proteus mirabilis; experiment: Antibacterial activity against Proteus mirabilis M 21 mutant after 18 hrs by Etest method; format: functional; details: M 21, 18 h

Structure (SMILES)	MIC
Oc1cc(Cl)ccc1Oc1ccc(Cl)cc1Cl [TRICLOSAN]	5 µg/mL (≈ 17.3 µM)

tested on: Proteus mirabilis; experiment: Effect on catheter blockage in Bladder model inoculated with Proteus mirabilis M 48 mutant; format: functional; details: not given

Structure (SMILES)	Time
Oc1cc(Cl)ccc1Oc1ccc(Cl)cc1Cl [TRICLOSAN]	>48 h

tested on: Proteus mirabilis; experiment: Effect on pH of residual urine at time of catheter blockage in Bladder model inoculated with Proteus mirabilis M 48 mutant; format: functional; details: not given

Structure (SMILES)	pH
Oc1cc(Cl)ccc1Oc1ccc(Cl)cc1Cl [TRICLOSAN]	6.51

tested on: Proteus mirabilis; experiment: Antibacterial activity against Proteus mirabilis M 35 mutant after 18 hrs by Etest method; format: functional; details: M 35, 18 h

Structure (SMILES)	MIC
Oc1cc(Cl)ccc1Oc1ccc(Cl)cc1Cl [TRICLOSAN]	40 µg/mL (≈ 138 µM)

tested on: Proteus mirabilis; experiment: Antibacterial activity against Proteus mirabilis M 55 mutant after 18 hrs by Etest method; format: functional; details: M 55, 18 h

Structure (SMILES)	MIC
Oc1cc(Cl)ccc1Oc1ccc(Cl)cc1Cl [TRICLOSAN]	40 µg/mL (≈ 138 µM)

tested on: Proteus mirabilis; experiment: Effect on viable cells in urine at time of catheter blockage in Bladder model inoculated with Proteus mirabilis M 48 mutant; format: functional; details: not given

Structure (SMILES)	CFU/ml
Oc1cc(Cl)ccc1Oc1ccc(Cl)cc1Cl [TRICLOSAN]	5.44 ×10⁴ /ml

tested on: Proteus mirabilis; experiment: Antibacterial activity against Proteus mirabilis NP37 after 18 hrs by Etest method; format: functional; details: NP37, 18 h

Structure (SMILES)	MIC
Oc1cc(Cl)ccc1Oc1ccc(Cl)cc1Cl [TRICLOSAN]	0.1 µg/mL (≈ 0.345 µM)

tested on: Proteus mirabilis; experiment: Antibacterial activity against Proteus mirabilis M 40 mutant after 18 hrs by Etest method; format: functional; details: M 40, 18 h

Structure (SMILES)	MIC
Oc1cc(Cl)ccc1Oc1ccc(Cl)cc1Cl [TRICLOSAN]	40 µg/mL (≈ 138 µM)

tested on: Proteus mirabilis; experiment: Effect on catheter blockage in Bladder model inoculated with Proteus mirabilis M 55 mutant; format: functional; details: not given

Structure (SMILES)	Time
Oc1cc(Cl)ccc1Oc1ccc(Cl)cc1Cl [TRICLOSAN]	44 h

tested on: Proteus mirabilis; experiment: Antibacterial activity against Proteus mirabilis NP14 after 18 hrs by Etest method; format: functional; details: NP14, 18 h

Structure (SMILES)	MIC
Oc1cc(Cl)ccc1Oc1ccc(Cl)cc1Cl [TRICLOSAN]	0.2 µg/mL (≈ 0.691 µM)

tested on: Escherichia coli; experiment: Antibacterial activity against Escherichia coli 10418 after 18 hrs by Etest method; format: functional; details: Escherichia coli, 10418, 18 h

Structure (SMILES)	MIC
Oc1cc(Cl)ccc1Oc1ccc(Cl)cc1Cl [TRICLOSAN]	0.2 µg/mL (≈ 0.691 µM)

tested on: Proteus mirabilis; experiment: Effect on pH of residual urine at time of catheter blockage in Bladder model inoculated with Proteus mirabilis M 55 mutant; format: functional; details: not given

Structure (SMILES)	pH
Oc1cc(Cl)ccc1Oc1ccc(Cl)cc1Cl [TRICLOSAN]	8.84

tested on: Proteus mirabilis; experiment: Antibacterial activity against Proteus mirabilis NP55 after 18 hrs by Etest method; format: functional; details: NP55, 18 h

Structure (SMILES)	MIC
Oc1cc(Cl)ccc1Oc1ccc(Cl)cc1Cl [TRICLOSAN]	0.2 µg/mL (≈ 0.691 µM)

tested on: Proteus mirabilis; experiment: Effect on viable cells in urine at time of catheter blockage in Bladder model inoculated with wild-type Proteus mirabilis B2; format: functional; details: not given

Structure (SMILES)	CFU/ml
Oc1cc(Cl)ccc1Oc1ccc(Cl)cc1Cl [TRICLOSAN]	2.07 ×10³ /ml

tested on: Proteus mirabilis; experiment: Antibacterial activity against Proteus mirabilis M 44 mutant after 18 hrs by Etest method; format: functional; details: M 44, 18 h

Structure (SMILES)	MIC
Oc1cc(Cl)ccc1Oc1ccc(Cl)cc1Cl [TRICLOSAN]	40 µg/mL (≈ 138 µM)

tested on: Proteus mirabilis; experiment: Antibacterial activity against Proteus mirabilis M 23 mutant after 18 hrs by Etest method; format: functional; details: M 23, 18 h

Structure (SMILES)	MIC
Oc1cc(Cl)ccc1Oc1ccc(Cl)cc1Cl [TRICLOSAN]	5 µg/mL (≈ 17.3 µM)

tested on: Proteus mirabilis; experiment: Antibacterial activity against Proteus mirabilis M 31 mutant after 18 hrs by Etest method; format: functional; details: M 31, 18 h

Structure (SMILES)	MIC
Oc1cc(Cl)ccc1Oc1ccc(Cl)cc1Cl [TRICLOSAN]	5 µg/mL (≈ 17.3 µM)

tested on: Proteus mirabilis; experiment: Effect on viable cells in urine at time of catheter blockage in Bladder model inoculated with Proteus mirabilis M 55 mutant; format: functional; details: not given

Structure (SMILES)	CFU/ml
Oc1cc(Cl)ccc1Oc1ccc(Cl)cc1Cl [TRICLOSAN]	4.2 ×10⁷ /ml

tested on: Proteus mirabilis; experiment: Antibacterial activity against Proteus mirabilis M 48 mutant after 18 hrs by Etest method; format: functional; details: M 48, 18 h

Structure (SMILES)	MIC
Oc1cc(Cl)ccc1Oc1ccc(Cl)cc1Cl [TRICLOSAN]	2 µg/mL (≈ 6.91 µM)
